Data reported in patent US5242915A, “Formulation useful for the inhibition of massive release of cerebral glutamate” (Shionogi & Co., Ltd., priority 1991, dated 1993).
“Also recorded” adds a separate entry of the source. Where two headings read alike, the source gives them in different places.

Columns and labels:
[1] = cited from earlier work; for antihypertensive, peripheral, cerebral and coronary vasodilating actions: background statement
[2] = tested on: vascular smooth muscle; details: background statement; cited from earlier work
[3] = tested on: cerebral release of glutamate; details: comparison, no data shown, cited from earlier work
[4] = tested on: DBA/2 Mouse; assay: Ultrasonically (sound)-induced convulsion in DBA/2 mouse; assay type: in vivo, mouse (DBA/2); details: for ED50: Mus musculus, one hour before ultrasonic treatment (70-90 db, 1 min), probit method, read-out: ED50 (anti-convulsant effect); for anti-convulsant effect, in words: sound/ultrasonically induced convulsion; for anticonvulsive effect (general statement): FIG. 3 and Table 1
Text: Animal: Ten mice consisting of five each of male and female DBA/2 mice (weighing from 7 to 11 g) bred at the Aburahi Laboratories (Shionogi) at three weeks of age were used in a group.
One hour before the ultrasonic treatment, each mouse of test group orally received S-312-d as a solution in polyethylene glycol 400. To each mouse of control groups was orally administered either of Nicardipine, as a solution in polyethylene glycol 400, S-312-1, Nimodipine or Flunarizine, as a suspension in gum arabic. Convulsion was induced in mouse by an ultrasonic treatment (70-90 db, 1 min) and the number of tetanic death was observed. ED50 value of anti-convulsant effect of each compound was calculated by probit method using the […] as an indication.

[5] = NMDA channel antagonist; cited from earlier work
[6] = tested on: massive release of cerebral glutamate in hippocampal CAI region; assay: Effect on the ischemic release of glutamate in hippocampal CAI region (BCAO, microdialysis); assay type: in vivo, rat (SHRSP, stroke-prone spontaneously Hypertensive Rats); details: intraduodenal, 40 min before BCAO, S-312-d 0.3 mg/kg; for inhibition of the massive release of glutamate during BCAO: nilvadipine 3 mg/kg, nimodipine 3 mg/kg, FIG. 2
Text: Thus, an experimental cerebral ischemia was caused in SHRSPs by the occlusion of both common carotid arteries (hereinafter, referred to as BCAO). During the ischemic period, a massive release of glutamate in hippocampal CAI region was observed (see, FIG. 1).
Reference compound: nilvadipine, and nimodipine Animal: Five male SHRSP bred at the Aburahi Laboratories (Shionogi) at ten to twelve weeks of age were used in a group. Animals were fed CA-1 (Nihon Clea) and tap water ad libitum.
Hippocampus CAI region was made ischemia by the occlusion of both common carotid arteries (BCAO) into rats as follows:
Rats were anesthetized with halothane (3%) and the cervical region proximal to abdomen was incised to expose the common carotid arteries. Both arteries were occluded with nylon threads with each end exposed at the back of the neck through either of two holes of a tube (double lumen PE tube, Natsume Seisakusho, & Co.). Occlusion was induced in the both common carotid arteries by pulling strongly each exposed end of threads. BCAO was stopped by gradually pulling down the each end of threads passed under arteries proximal to abdomen. During the ischemic period, the halothane inhalation was stopped.
The determination of the regional cerebral blood flow was conducted using a laser doppler tissue flow meter (LFA-2, Biomedical Science, Japan) with a needle-type sensor (450 μm in diameter) inserted into the hippocampal CA1 region opposite to the site where a microdialysis probe had been fixed. The blood flow during BCAO was estimated as almost negligible on the assumption that the blood flow after the death of rat is "0".
S-312-d (0.3 mg/kg), nilvadipine (3 mg/kg), or nimodipine (3 mg/kg) was dissolved into polyethylene glycol 400 and administered into duodenum in each rat at 40 min before BCAO.
Under the anesthesia with halothane (1-2%), rats were fixed on cerebral stereotaxic frame and equipped with an artificial respirator (1 cc/100 gbw×60 times/min), while being maintained at 37 ° C by settling a heating pad beneath the lower abdominal region. A hole was drilled on the exposed skull and a microdialysis probe (CMA/10, membrane length 2 mm, BAS, Sweden) was inserted gently. Measurement was started after 3 hr from the surgery in order to avoid the influence of tissue damage. The probe was perfused with Ringer's solution at a flow rate of 2 μl/min by a microdialysis pump (CMA/100, BAS, Sweden). The dialysates were collected for each 5-min perfusion and pooled. Sampling was started at 10 min before the BCAO. BCAO was continued for 20 min when it was stopped by loosening […] threads to allow cerebral circulation. The sampling was continued for 20 min after the discontinuation of the BCAO. Samples were then subjected to quantitative analysis for glutamate without further treatments.
The concentration of glutamate was determined by HPLC substantial in accordance with the HPLC-ECD method of Donzanti et al. (Life Sci. 43: 913 (1988)) The glutamate-containing sample was reacted with o-phthlaldehyde/β-mercaptoethanol solution for 2 min and injected into a reverse-phase column and eluted under the following conditions. The eluate was then analyzed for the presence of glutamate by an electrochemical measurement of oxidation-reduction current.
Column: C 18, particle size: 3 μm, 8 cm×4.6 mm
Mobile phase: a mixture of 0.1M phosphate buffer (pH 6.4), 0.13 mM Na2 EDTA, and 22% MeOH

[7] = tested on: pyramidal neurons of the hippocampal CAI region; assay: Delayed neuronal death during cerebral ischemia (density of living pyramidal neurons); assay type: in vivo, rat (SHRSP); details: for Density of Neurons, animals with 40-80 n/mm / Density of Neurons, animals with 80-120 n/mm / Density of Neurons, animals with <40 n/mm / Density of Neurons, animals with >120 n/mm: 7th day; for Density of Neurons, mean ± S.E.M: normal 160 ± 9, control 69 ± 10
Method: Animal: eight to twelve (n=8-12) male SHRSP bred at the Aburahi Laboratories (Shionogi) were used in a group. Animals were fed CA-1 (Nihon Clea) and tap water ad libitum.
S-312-d was dissolved into polyethylene glycol 400 solution and intraperitoneally administered to a SHRSP at 60 min before the introduction of a global cerebral ischemia. Cerebral ischemia was then caused in each rat for 20 min and stopped to allow cerebral circulation in the same manner as the above Experiment 1. For the histological observation on the delayed neuronal death, a fixation of tissue was conducted by perfusing the animal from the left ventricle using 4% paraformaldehyde at a flow rate of 10 ml/min by means of perista pump (AC-2110, ATTA) on the 7th day from the ischemia. After the removal of brain, cerebral region containing hippocampus was embedded in paraffin, from which sliced preparations of 4 μm thick were prepared. Each cerebral preparation was stained with hematoxylin-eosin and the density of the living pyramidal neurons (n/mm) was determined by counting the number of neurons per 1 mm length of the hippocampal CAI region under a light microscope. The data were expressed as the mean ±S.E.M. For the purpose of comparison, SHRSPs with or without ischemic maneuvering were both treated with propylene glycol, in exactly the same manner as the above.

[8] = oral, one hour before ultrasonic treatment
[9] = treated group (I), 0.01 mg/kg i.p. 60 min before ischemia (20 min), n = 12
[10] = treated group (II), 0.1 mg/kg i.p. 60 min before ischemia (20 min), n = 13

COC(=O)C1=C(C)Nc2scc(CC(C)C)c2C1c1cccc([N+](=O)[O-])c1 (racemic) [S-312, methyl 4,7-dihydro-3-isobutyl-6-methyl-4-(3-nitrophenyl)thieno[2,3-b]pyridine-5-carboxylate]
adverse reactions ([1]; U.S. Pat. No. 4,703,051): lesser adverse reactions
vasodilating, antihypertensive and coronary vasodilating effect ([1]; U.S. Pat. No. 4,703,051): potent antihypertensive and coronary vasodilating effect
antihypertensive, peripheral, cerebral and coronary vasodilating actions [1]: exhibit antihypertensive activity, as well as peripheral, cerebral, and coronary vasodilating actions
Ca-blocking effect on vascular smooth muscle [2]: selective Ca-blocking effect on vascular smooth muscle

NCC(CC(=O)O)c1ccc(Cl)cc1 (stereo not shown) [Baclofen]
effect on ischemic release of glutamate [3]: not the ischemic release
effect on normal release of glutamate [3]: inhibit the normal glutamate release
effect on normal release of glutamate ([3]; listed as baclofen): inhibits the normal release

Fc1ccc(C(c2ccc(F)cc2)N2CCN(C/C=C/c3ccccc3)CC2)cc1 [Flunarizine]
ED50 ([4]; oral): 48.1 mg/kg
anti-convulsant effect, in words [4]: dose-dependent anti-convulsant effect

C[C@]12N[C@H](Cc3ccccc31)c1ccccc12 [MK-801]
toxic effects / clinical applicability [5]: not clinically applicable because of serious toxic effects

COC(=O)C1=C(C)NC(C)=C(C(=O)OCCN(C)Cc2ccccc2)C1c1cccc([N+](=O)[O-])c1 (stereo not shown) [Nicardipine]
Anticonvulsive effect (maximum), at 20-80 mg/kg [4, 8]: 30%
anticonvulsive effect (general statement) [4, 8]: less than 40%

COCCOC(=O)C1=C(C)NC(C)=C(C(=O)OC(C)C)C1c1cccc([N+](=O)[O-])c1 (stereo not shown) [Nimodipine, reference compound]
inhibition of the massive release of glutamate during BCAO [6]: only S-312-d was significantly effective; also recorded: neither nilvadipine nor nimodipine shows significant effect
Anticonvulsive effect (maximum), at 20-80 mg/kg [4, 8]: 40%
anticonvulsive effect (general statement) [4, 8]: less than 40%

COC(=O)C1=C(C)Nc2scc(CC(C)C)c2[C@@H]1c1cccc([N+](=O)[O-])c1 [S-312-1, methyl (-)-(4R)-4,7-dihydro-3-isobutyl-6-methyl-4-(3-nitrophenyl)thieno[2,3-b]pyridine-5-carboxylate]
Anticonvulsive effect (maximum), at 10-80 mg/kg ([4]; oral, 10-80 mg/kg, one hour before ultrasonic treatment): 30%
anticonvulsive effect (general statement) [4, 8]: less than 40%

COC(=O)C1=C(C)Nc2scc(CC(C)C)c2[C@H]1c1cccc([N+](=O)[O-])c1 [S-312-d, methyl (+)-(4S)-4,7-dihydro-3-isobutyl-6-methyl-4-(3-nitrophenyl)thieno[2,3-b]pyridine-5-carboxylate]
effect on the normal resting release of glutamate [6]: not the normal resting release; also recorded: without affecting the normal resting release of glutamate; also recorded: not the normal cerebral release of glutamate
inhibition of the massive release of glutamate during BCAO [6]: only S-312-d was significantly effective; also recorded: inhibited the massive release of glutamate during BCAO; also recorded: inhibits specifically the massive release of glutamate during cerebral ischemia; also recorded: inhibiting specifically a massive release of cerebral glutamate from hippocampus
inhibition of the massive release of glutamate during BCAO ([6]; listed as S-312-2): the massive release of cerebral glutamate
ED50 ([4]; oral): 17.6 mg/kg
anti-convulsant effect, in words [4]: inhibits sound-induced convulsion in DBA/2 mouse; also recorded: dose-dependent anti-convulsant effect; also recorded: potent inhibitory effect on a convulsion induced by sound stimulation in DBA/2 mice
anti-convulsant effect, in words ([4]; listed as S-312-2): inhibit the both of a) the sound-induced convulsion
protection of cerebral neurons against ischemic necrosis ([7]; pretreatment i.p., Table 2): significantly effective for the protection of cerebral neurons against ischemic necrosis of cells
Density of Neurons, animals with 40-80 n/mm [7, 9]: 4
Density of Neurons, animals with 80-120 n/mm [7, 9]: 2
Density of Neurons, animals with <40 n/mm [7, 9]: 3
Density of Neurons, animals with >120 n/mm [7, 9]: 3
Density of Neurons, mean ± S.E.M ([7]; treated group (I), 0.01 mg/kg i.p., n = 12, p < 0.01 vs normal group): 73 ± 12 n/mm
Density of Neurons, animals with 40-80 n/mm [7, 10]: 1
Density of Neurons, animals with 80-120 n/mm [7, 10]: 4
Density of Neurons, animals with <40 n/mm [7, 10]: 2
Density of Neurons, animals with >120 n/mm [7, 10]: 6
Density of Neurons, mean ± S.E.M ([7]; treated group (II), 0.1 mg/kg i.p., n = 13, p < 0.01 vs control group): 114 ± 17 n/mm
antihypertensive, peripheral, cerebral and coronary vasodilating actions [1]: exhibit antihypertensive activity, as well as peripheral, cerebral, and coronary vasodilating actions
Ca-blocking effect on vascular smooth muscle [2]: selective Ca-blocking effect on vascular smooth muscle

COC(=O)C1=C(C#N)NC(C)=C(C(=O)OC(C)C)C1c1cccc([N+](=O)[O-])c1 (stereo not shown) [nilvadipine, reference compound]
inhibition of the massive release of glutamate during BCAO [6]: only S-312-d was significantly effective; also recorded: neither nilvadipine nor nimodipine shows significant effect
